Assay results: article PMC3328449, “Inhibition of Diacylglycerol–Sensitive TRPC Channels by Synthetic and Natural Steroids” (PLoS ONE, 2012)
“And” between values parts separate entries of the source, which are not always exact repeats. Identical values can stand only once.

Biological target: T1, mTRPC5 (Mus musculus, UniProt Q9QX29)
T1 construct: expressed in transfected cells
T1 sequence (Q9QX29 1-975): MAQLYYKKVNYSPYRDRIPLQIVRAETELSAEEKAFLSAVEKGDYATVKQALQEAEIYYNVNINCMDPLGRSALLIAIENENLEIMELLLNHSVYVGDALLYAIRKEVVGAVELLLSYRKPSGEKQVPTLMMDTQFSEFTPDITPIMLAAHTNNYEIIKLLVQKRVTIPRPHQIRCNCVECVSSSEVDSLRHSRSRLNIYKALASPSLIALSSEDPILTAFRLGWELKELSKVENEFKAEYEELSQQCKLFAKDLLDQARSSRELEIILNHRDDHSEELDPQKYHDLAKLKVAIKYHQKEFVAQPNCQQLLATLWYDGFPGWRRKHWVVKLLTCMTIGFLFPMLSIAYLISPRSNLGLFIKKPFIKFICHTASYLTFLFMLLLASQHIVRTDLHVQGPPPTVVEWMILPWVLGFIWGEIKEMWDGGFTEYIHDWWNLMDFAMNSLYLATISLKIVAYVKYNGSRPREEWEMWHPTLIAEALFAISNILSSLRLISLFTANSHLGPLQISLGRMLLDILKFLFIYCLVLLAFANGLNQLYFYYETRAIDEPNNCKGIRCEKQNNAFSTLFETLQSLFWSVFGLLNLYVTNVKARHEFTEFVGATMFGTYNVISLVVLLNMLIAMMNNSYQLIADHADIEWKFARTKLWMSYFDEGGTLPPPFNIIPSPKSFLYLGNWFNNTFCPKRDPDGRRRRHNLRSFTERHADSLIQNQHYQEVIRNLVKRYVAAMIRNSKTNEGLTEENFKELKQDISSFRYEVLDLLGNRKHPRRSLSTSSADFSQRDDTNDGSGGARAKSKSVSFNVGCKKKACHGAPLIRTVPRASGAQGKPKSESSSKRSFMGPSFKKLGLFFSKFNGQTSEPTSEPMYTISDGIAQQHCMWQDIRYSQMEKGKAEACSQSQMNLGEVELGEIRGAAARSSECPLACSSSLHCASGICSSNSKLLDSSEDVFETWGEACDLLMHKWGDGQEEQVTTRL
Experiment: Whole-cell patch clamp, AlF4- evoked TRPC5 currents
Assay type: cell-based
Method: Cells were grown at 37°C in a humidified atmosphere (5% or 7% CO2) under standard cell culture conditions. Stable human embryonic kidney (HEK) cell lines expressing recombinant mTRPC4ß (GenBank accession number AAC05178); mTRPC5 (GenBank accession number NM_009428) or hTRPC6 (GenBank accession number AF080394) under the control of a tetracycline-inducible promoter were generated using the Flp-In T-Rex (FITR) system (Invitrogen, Karlsruhe, Germany). […]
Cells grown on poly-L-lysine-coated coverslips were continuously superfused with extracellular solution and substances were applied using an ALA BPS-8 perfusion system (ALA Scientific Instruments, Westbury, USA). […] Cells were held at −70 mV, and current-voltage (I–V) relationships were routinely measured every 2 or 3 s by applying voltage ramps (180 ms) from −100 mV to +80 mV. […]
For statistical analysis, analysis of variance was performed with Origin 6.0 software (Microcal Software Inc., Northampton, USA). […] IC50 were calculated with SigmaPlot (Systat software, San Jose, USA) using the sigmoidal Hill-model: f = 100 (C^n/(IC50 ^n+C^n)); where f is the inhibition, C is the applied drug concentration and n is the Hill coefficient. […] Averaged data is expressed as means ± SEM.

Hill slope, TRPC5 current inhibition (fit to dose-response equation): 1.43
IC50 (whole-cell patch clamp, AlF4- infusion, TRPC5 HEK-FITR cells, read-out: IC50, TRPC5 current inhibition): > 10 µM and 13.6 µM and ~14 µM
Compound: C#C[C@]1(OC(C)=O)CC[C@H]2[C@@H]3CCC4=CC(=NO)CC[C@@H]4[C@H]3CC[C@@]21CC (mixture of isomers) [norgestimate]
